# “Also recorded” adds a separate entry of the source.
# Assays:
# [1] = Cytotoxicity in mock-infected MT-4 cells, MTT method; format: cell-based; conditions: human, mock-infected MT-4 cells, CC50, mock-infected MT-4 cells
# MT-4 cells = assay: as above; format: cell-based
# [2] = test system: HIV-1 mutant strain L100I; assay: microbe, parasite or virus in culture; format: cell-based; conditions: Human immunodeficiency virus 1, MT4, read-out: EC50 L100I
# [3] = test system: HIV-1 mutant strain K103N; assay: microbe, parasite or virus in culture; format: cell-based; conditions: Human immunodeficiency virus 1, MT4, read-out: EC50 K103N
# [4] = test system: HIV-1 mutant strain Y181C; assay: microbe, parasite or virus in culture; format: cell-based; conditions: Human immunodeficiency virus 1, MT4, read-out: EC50 Y181C
# [5] = test system: HIV-1 mutant strain Y188L; assay: microbe, parasite or virus in culture; format: cell-based; conditions: Human immunodeficiency virus 1, MT4, read-out: EC50 Y188L
# [6] = test system: HIV-1 mutant strain E138K; assay: microbe, parasite or virus in culture; format: cell-based; conditions: Human immunodeficiency virus 1, MT4, read-out: EC50 E138K
# [7] = test system: HIV-1 mutant strain F227L + V106A; assay: microbe, parasite or virus in culture; format: cell-based; conditions: Human immunodeficiency virus 1, MT4, read-out: EC50 F227L + V106A
# [8] = test system: HIV-1 mutant strain RES056 (K103N + Y181C); assay: microbe, parasite or virus in culture; format: cell-based; conditions: Human immunodeficiency virus 1, MT4, read-out: EC50 RES056
# SPF Kunming mice [9] = assay: Acute toxicity experiment in mice; format: in vivo; conditions: 7 days
# SPF Kunming mice [10] = assay: Subacute toxicity experiment in mice; format: in vivo
# [11] = In vivo pharmacokinetics study in rats; conditions: male, Sprague-Dawley, rat, plasma
# HIV-1 WT strain (IIIB) = assay: Anti-HIV activity against WT HIV-1
smiles,measurement,setting,value
"Cc1cc(C)cc(S(=O)(=O)c2c(C(=O)NCCCCNS(=O)(=O)c3cccnc3)[nH]c3ccc(Cl)cc23)c1 [R10L4, 5-Chloro-3-((3,5-dimethylphenyl)sulfonyl)-N-(4-(pyridine-3-sulfonamido)butyl)-1H-indole-2-carboxamide]",CC50 at 5 days,[1],216000 nM
same,fold decrease in cytotoxicity compared to IAS-0,"MT-4 cells; CC50, MT-4 cells",~40 fold
same,CC50,MT-4 cells; mock-infected MT-4 cells,216500 ± 520 nM
same,EC50,[2],17 ± 2 nM
same,EC50,[3],68 ± 12 nM
same,EC50,[4],45 ± 10 nM
same,EC50,[5],540 ± 87 nM
same,EC50,[6],17 ± 7 nM
same,EC50,[7],87 ± 35 nM
same,EC50,[8],5260 nM
same,"mortality or behavior changes, acute toxicity",SPF Kunming mice [9]; 800 mg/kg intragastric,no remarkable in vivo toxic effects; also recorded: did not lead to any mortality or observable behavior changes
same,"body weight, acute toxicity","SPF Kunming mice [9]; 800 mg/kg, compared with blank group",only insignificant body weight loss was seen
same,"mortality or behavior changes, subacute toxicity","SPF Kunming mice [10]; 50 mg/kg p.o., 12 days",no remarkable in vivo toxic effects; also recorded: did not lead to any mortality or observable behavior changes
same,"body weight, subacute toxicity","SPF Kunming mice [10]; 50 mg/kg, 12 days, compared with blank group",only insignificant body weight loss was seen
same,pathology of hematoxylin and eosin-stained slices from vital organs,"SPF Kunming mice [10]; end of subacute toxicity test, heart, liver, spleen, lung, kidney",no marked pathological abnormalities
same,AUC(0-inf),"[11]; iv, 2 mg/kg",481 ± 63.3 ng·h/mL
same,AUC(0-t),"[11]; iv, 2 mg/kg",472 ± 63.4 ng·h/mL
same,MRT inf,"[11]; iv, 2 mg/kg",1.45 ± 0.09 h
same,Tmax,"[11]; iv, 2 mg/kg",0.083 h
same,clearance,"[11]; iv, 2 mg/kg",70.2 mL/min/kg
same,half-life,"[11]; iv, 2 mg/kg",1.61 ± 0.04 h
same,Cmax,"[11]; iv, 2 mg/kg, i.v. 2 mg/kg",657 ± 99.2 ng/mL
same,bioavailability,"[11]; oral, 10 mg/kg",8.5%
same,AUC(0-inf),"[11]; po, 10 mg/kg",203 ± 38.4 ng·h/mL
same,AUC(0-t),"[11]; po, 10 mg/kg",199 ± 38.7 ng·h/mL
same,MRT inf,"[11]; po, 10 mg/kg",2.27 ± 0.05 h
same,Tmax,"[11]; po, 10 mg/kg",0.83 ± 0.15 h
same,half-life,"[11]; po, 10 mg/kg",1.78 ± 0.25 h
same,Cmax,"[11]; po, 10 mg/kg, p.o. 10 mg/kg",≤ 80 ng/mL
same,"selectivity index, times higher than that of IAS-0",HIV-1 WT strain (IIIB); WT HIV-1,~14 times
same,SI IIIB (CC50/EC50 ratio),HIV-1 WT strain (IIIB); WT HIV-1 IIIB,"30,930"

# Source: article PMC10326263 (Acta Pharmaceutica Sinica. B, 2023)
